From patent US6207656A, “Vitamin D analogues and their neuronal effects” (Cephalon, Inc., priority 1998, dated 2001)
Entries after “also recorded” stand apart in the source; their conditions may differ.

Legend:
[1] = Calcemic activity in rats, serum calcium after 7 days oral gavage; assay type: in vivo, LEW/MOL female rats; conditions: for Calcium in Serum: ± S.D.; for Calcemic Activity (%): potency relative to 1α,25(OH)2 D3, rats, p.o. 7 days; for calcemic classification: summary statement
Protocol: For determining calcemic activity, LEW/MOL female rats (130-170 g) were administered test compounds daily for 7 days by oral gavage. Control rats received the vehicle. Each group consisted of 3 rats. Blood was collected by cardiac puncture on day 7.

[2] = target: T1, vitamin D receptor (Gallus gallus, UniProt O42392); assay: Vitamin D receptor binding (displacement of 3H-1α,25(OH)2D3)
T1 sequence (O42392 1-451): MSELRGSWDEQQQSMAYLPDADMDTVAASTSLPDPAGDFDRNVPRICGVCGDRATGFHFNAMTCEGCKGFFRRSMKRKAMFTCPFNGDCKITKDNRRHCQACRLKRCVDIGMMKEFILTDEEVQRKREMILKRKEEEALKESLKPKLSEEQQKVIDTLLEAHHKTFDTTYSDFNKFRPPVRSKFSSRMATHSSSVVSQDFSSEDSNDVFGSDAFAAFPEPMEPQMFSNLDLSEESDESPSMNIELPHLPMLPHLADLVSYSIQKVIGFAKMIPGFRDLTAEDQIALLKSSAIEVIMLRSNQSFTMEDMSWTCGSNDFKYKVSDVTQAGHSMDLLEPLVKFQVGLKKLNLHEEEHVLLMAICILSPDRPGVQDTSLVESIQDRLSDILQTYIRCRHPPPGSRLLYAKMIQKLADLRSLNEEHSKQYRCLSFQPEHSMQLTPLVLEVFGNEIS
Source text: Bound and free ^3 H-1α,25(OH2)D3 were then separated on dextran-coated charcoal, samples were centrifuged and the supernatants containing the receptor-bound ^3 H-1α,25(OH2)D3 were counted in a liquid scintillation counter.

[3] = test system: acrylamide-induced peripheral neuropathy in rats; assay: Acrylamide-induced peripheral neuropathy, landing foot spread; assay type: in vivo, rat
Protocol: Peripheral neuropathy was induced in rats by the administration of the neurotoxin acrylamide, 50 mg/kg, IP, 3×/week. The acrylamide treatment occurred during the first three weeks of the experiment. After acrylamide was discontinued, the animals were allowed to recover for an additional 3-5 weeks. The ability of Compound (A) or Compound (B) to either slow the onset of peripheral neuropathy, reduce the severity of the peripheral neuropathy or enhance the recovery from peripheral neuropathy was determined. The compounds were administered either orally (Compound (A)) or via subcutaneous Alzet mini-pumps (I month model)(Compounds (A) and (B)) beginning 3 days prior to the first dose of acrylamide. Compound (A) was administered orally at doses of 0.3, 1.0 and 3.0 μg/kg/day and by mini-pump at doses of 10, 55, 100, 330 and 550 ng/day. Compound (B) was administered by mini-pump at doses of 10, 33, 100, 330 and 1000 ng/day. These dose ranges were selected to limit toxicity and to bracket the dose range used in fimbria fornix lesion experiments. The mini-pumps were replaced at the end of the fourth week so that the test compound was on board for the duration of the experiment. In FIG. 11B, the data from FIG. 11A was averaged.

[4] = Serum calcium in fimbria fornix lesioned rats; assay type: in vivo, Sprague Dawley rats; conditions: oral gavage daily 14 days; data not shown
Protocol: For the fimbria fornix lesion studies, serum calcium was determined by the following method. Sprague Dawley rats (200-300 g) were dosed as described below. Blood was collected from the animals after sacrifice and allowed to clot at room temperature for 3-10 minutes; cells were pelleted in a clinical centrifuge.
(§1) The hippocampal ChAT activity is expressed as a percentage of the hippocampal ChAT activity of the […] control side (i.e., lesion control) in FIGS. 4 to 8.

[5] = test system: hippocampal ChAT; assay: Fimbria fornix lesion model, hippocampal ChAT activity; assay type: in vivo, rat; conditions: oral gavage daily 14 days, FIGS. 4 to 8; * p<0.05 vs vehicle-treated lesioned controls
Source text: The fimbria fornix lesion model is an established protocol for assessing cholinergic neuronal survival in the basal forebrain. […] Contained within the region of the brain 10 are cholinergic neurons 16. A healthy cholinergic neuron has a cell body 18, and one or more axons 20. Each of the axons 20 have a free end, referred to as a terminal 22, that extends into the hippocampus 14. In the fimbria fornix lesion model, damaged cholinergic neurons 24 are produced by transecting a portion of the axons 20 at a location 26 between the hippocampus 14 and the cell body 18. As a result of this transection, damaged cell bodies 28 are produced that no longer have cholinergic axons 30 and terminals 32. These damaged cell bodies 28, also lose cholinergic cell body markers 34 and stop producing ChAT. The fimbria fornix lesion model is used to study methods of restoring ChAT production, such as through stimulating increased production of ChAT in the healthy cholinergic neurons, and/or through restoring normal functioning of the damaged cholinergic neurons 24.
For the studies described herein, animals were anesthetized with pentobarbital and placed in a stereotaxic apparatus. The skull was opened on the left side, a knife was positioned 1.2 mm posterior to bregma and 0.6 mm lateral to the midline. The knife was lowered to 4.5 mm below the dura into the brain and moved laterally 2 mm partially transecting the fimbria fornix. After 14 days of administration of the test compounds by oral gavage, the hippocampus was removed and homogenized.
as §1

[6] = test system: CNTF mRNA; assay: Induction of CNTF mRNA expression in rats; assay type: in vivo, Sprague Dawley rats
Protocol: Young adult male Sprague Dawley rats (250-350 g) were administered Compound (A), Compound (E), or a vehicle (80% propylene glycol (human formulation grade; Spectrum Quality Products, Inc., Gardena, Calif., catalog #PR130-55003) and 20% phosphate buffer, pH 9.2) at doses ranging from 0.1 to 5.5 μg/kg daily by oral gavage for eight days. Five hours after the last dose, the animals were sacrificed by decapitation. Each brain was quickly removed and chilled in ice-cold saline. The brain was cut into 2 mm thick coronal sections. Portions of the hippocampus, encompassing the CA1 region, and the medial septum were removed by punching 2 mm^3 sections using a calibrated tissue punch. Punched sections were immediately frozen on dry ice and then stored at -70° C. RNA was prepared from dissected tissue pieces.
Punches of tissue were homogenized in […] RNAzolB™ (Bioteex Laboratories, Houston, Tex.) using a homogenizer (Tekmar, Germany) until fully homogenized and then 250 μl RNAzilB™ was added. Typically, punches from the corresponding regions of brains of 2 to 3 animals were combined together. RNA was prepared as recommended by the manufacturer (Biotecx Laboratories). […] Concentration of RNA was measured spectrophotometrically and the quality of RNA was visualized on a nondenaturing agarose gel. […]

[7] = test system: NGF mRNA; assay: Induction of NGF mRNA expression in rats; assay type: in vivo, Sprague Dawley rats
Protocol: Five hours after the last dose, the animals were sacrificed by decapitation. Each brain was quickly removed and chilled in ice-cold saline. The brain was cut into 2 mm thick coronal sections. Portions of the hippocampus, encompassing the CA1 region, and the medial septum were removed by punching 2 mm^3 sections using a calibrated tissue punch. Punched sections were immediately frozen on dry ice and then stored at -70° C. RNA was prepared from dissected tissue pieces.
Punches of tissue were homogenized in […] RNAzolB™ (Bioteex Laboratories, Houston, Tex.) using a homogenizer (Tekmar, Germany) until fully homogenized and then 250 μl RNAzilB™ was added. Typically, punches from the corresponding regions of brains of 2 to 3 animals were combined together. RNA was prepared as recommended by the manufacturer (Biotecx Laboratories). Following isopropanol precipitation, RNA was reprecipitated with ethanol and finally resuspended in 25-50 μL of water. Concentration of RNA was measured spectrophotometrically and the quality of RNA was visualized on a nondenaturing agarose gel. Equal amounts of RNA, usually 1-2 μg, were reverse transcribed using Superscript II™ (Gibco BRL), as recommended by the manufacturer. The assay was terminated by incubation at 95° C. 1 min. at 55-60° C. (depending on the primer set) and 2 min. at 72° C. […] After the assay, samples were electrophoresed on 5% nondenaturing acrylamide gels. Gels were dried and the resulting labeled bands were visualized on a phosphorimager (Storm 840, Molecular Dynamics, Sunnyvale, Calif.). The following primers were used: […]
Nerve Growth Factor (NGF). Primers were designed against the rat sequence.

Structure (SMILES): C=C1/C(=C\C=C2/CCC[C@]3(C)[C@@H]([C@@H](C)CSc4cccc(C(C)(C)O)c4)CC[C@@H]23)C[C@@H](O)C[C@@H]1O [Compound (B), 1(S),3(R)-dihydroxy-20(R)-(3-((1-hydroxy-1-methyl)ethyl)phenylthiomethyl)-9,10-seco-pregna-5(Z),7(E),10(19)-triene]
- Calcium in Serum ([1]; 10 μg/kg/day p.o., Table 2B (vehicle 2.57 ± 0.06)): 2.51 ± 0.05 mmol/L
- Calcium in Serum ([1]; 50 μg/kg/day p.o., Table 2B (vehicle 2.57 ± 0.06)): 2.59 ± 0.02 mmol/L
- Calcium in Serum ([1]; 100 μg/kg/day p.o., Table 2B (vehicle 2.57 ± 0.06)): 2.59 ± 0.04 mmol/L
- Calcemic Activity (%) [1]: 1%
- calcemic classification [1]: exemplary of low calcemic vitamin D3 analogues
- Kd [2]: 0.2 nM
- development of peripheral neuropathy ([3]; continuously pumped (mini-pump)): did not prevent the development of the acrylamide-induced peripheral neuropathy
- recovery from peripheral neuropathy ([3]; mini-pump): increased the recovery from acrylamide-induced peripheral neuropathy; also recorded: an effect upon the recovery from the lesion was apparent
- return of landing foot spread to sham levels ([3]; mini-pump 10 ng/day): returned to sham levels by day 36
- landing foot spread on day 40 ([3]; mini-pump 10, 100 or 1000 ng/day (FIG. 13B)): statistically significant decrease in landing foot spread
- landing foot spread ([3]; mini-pump, recovery period): decreased landing foot spread during the recovery period
- serum calcium at doses giving the ChAT results [4]: low calcemic dose levels
- hippocampal ChAT activity vs lesioned controls [5]: significant increase in CHAT activity

Structure (SMILES): C=C1/C(=C\C=C2/CCC[C@]3(C)[C@@H]([C@@H](C)COc4cccc(C(C)(C)O)c4)CC[C@@H]23)C[C@@H](O)C[C@@H]1O [Compound (C), 1(S), 3(R)-dihydroxy-20(R)-[3-(2-hydroxy-2-propyl)-phenoxymethyl]-9,10-seco-pregna-5(Z),7(E),10(19)-triene]
- Calcium in Serum ([1]; 0.1 μg/kg/day p.o., Table 2C (vehicle 2.68 ± 0.03)): 2.71 ± 0.07 mmol/L
- Calcium in Serum ([1]; 1.0 μg/kg/day p.o., Table 2C (vehicle 2.68 ± 0.03)): 2.66 ± 0.06 mmol/L
- Calcium in Serum ([1]; 10 μg/kg/day p.o., Table 2C (vehicle 2.68 ± 0.03)): 2.82 ± 0.05 mmol/L
- Calcemic Activity (%) [1]: 8%
- calcemic classification [1]: exemplary of low calcemic vitamin D3 analogues
- serum calcium at doses giving the ChAT results [4]: low calcemic dose levels
- hippocampal ChAT activity vs lesioned controls [5]: significant increase in CHAT activity

Structure (SMILES): C=C1/C(=C\C=C2/CCC[C@]3(C)[C@@H]([C@H](C)CCCCC(O)(CC)CC)CC[C@@H]23)C[C@@H](O)C[C@@H]1O [Compound (D)]
- Calcium in Serum ([1]; 0.1 μg/kg/day p.o., Table 2D (vehicle 2.51 ± 0.09)): 2.59 ± 0.08 mmol/L
- Calcium in Serum ([1]; 5.0 μg/kg/day p.o., Table 2D (vehicle 2.51 ± 0.09)): 2.90 ± 0.06 mmol/L
- Calcium in Serum ([1]; 10 μg/kg/day p.o., Table 2D (vehicle 2.51 ± 0.09)): 3.19 ± 0.16 mmol/L
- Calcemic Activity (%) [1]: 20%
- calcemic classification [1]: exemplary of low calcemic vitamin D3 analogues
- serum calcium at doses giving the ChAT results [4]: low calcemic dose levels
- hippocampal ChAT activity vs lesioned controls [5]: significant increase in CHAT activity

Structure (SMILES): C=C1/C(=C\C=C2/CCC[C@]3(C)[C@@H]([C@H](C)/C=C/C#CC(O)(CC)CC)CC[C@@H]23)C[C@@H](O)C[C@@H]1O [Compound (E)]
- Calcium in Serum ([1]; 0.1 μg/kg/day p.o., Table 2E (vehicle 2.51 ± 0.09)): 2.41 ± 0.01 mmol/L
- Calcium in Serum ([1]; 1.0 μg/kg/day p.o., Table 2E (vehicle 2.51 ± 0.09)): 2.42 ± 0.04 mmol/L
- Calcium in Serum ([1]; 10 μg/kg/day p.o., Table 2E (vehicle 2.51 ± 0.09)): 2.38 ± 0.03 mmol/L
- Calcemic Activity (%) [1]: 20%
- calcemic classification [1]: exemplary of low calcemic vitamin D3 analogues
- Kd [2]: 0.3 nM
- serum calcium at doses giving the ChAT results [4]: low calcemic dose levels
- hippocampal ChAT activity vs lesioned controls [5]: significant increase in CHAT activity
- production of CTNF mRNA ([6]; 0.3, 1.0, 3.0, and 5.5 μg/kg oral, 8 days, rat septum (FIG. 2B)): facilitated the production of NGF mRNA and CTNF mRNA
- dose dependence of CTNF mRNA production ([6]; 0.3-5.5 μg/kg, rat septum): generally increased with increasing dosage
- production of NGF mRNA ([7]; 0.3, 1.0, 3.0, and 5.5 μg/kg oral, 8 days, rat septum (FIG. 2A)): facilitated the production of NGF mRNA
- dose dependence of NGF mRNA production ([7]; 0.3-5.5 μg/kg, rat septum): generally increased with increasing dosage
